Test results taken from patent US9266876B2 (Actelion Pharmaceuticals Ltd., priority 2012, dated 2016).

Key:
[1] = biological target: human CXCR3A (Homo sapiens (Human), UniProt P49682); assay: FLIPR assay; type: cell-based; details: CHO-K1 cells expressing the human CXCR3A coupled to Galpha(16); CXCL10 agonist 20 nM; Fluo-4-AM fluorescence; mean values if determined several times
In short: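 CHO-K1 cells expressing CXCR3A coupled to Gα16 were loaded with Fluo-4-AM for 1 h in Hepes-buffered HBSS, pH 7.4, with 5 mM probenecid. Compound dilutions were added on the FLIPR, followed by CXCL10 (added as a 20 nM solution). Baseline-subtracted peak fluorescence was fitted to a single-site curve for IC50.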

[2] = biological target: CXCR3 (Homo sapiens (Human), UniProt P49682); assay: Receptor internalization assay; type: cell-based; details: human whole blood; final CXCL10 concentration 9 nM; 30 min 37° C.; CXCR3 cell surface expression on CD3 positive cells, flow cytometer; read-out: Internalization IC50
Description: B): Receptor Internalization Assay:
Stock solutions of test compounds are made up at a concentration of 10 mM in DMSO, and serially diluted in PBS containing 0.5% BSA to concentrations required for inhibition dose response curves. Diluted compounds are then mixed with an equal volume of CXCL10 (Peprotech) diluted in PBS. Anticoagulated venous human whole blood is added to the mixture, which is then incubated in a CO2 incubator at 37° C. to allow for ligand mediated receptor internalization (final CXCL10 concentration is 9 nM). After 30′, the blood is mixed with fluorescently labeled CXCR3 and CD3 specific antibodies (Becton Dickinson) and incubated on ice for 10 minutes. Samples are then mixed with BD FACS Lysing Solution (Becton Dickinson) in order to eliminate red blood cells. After washing the cells with PBS containing 0.5% BSA, the samples are then analyzed in a flow cytometer (FACS Canto II, Becton Dickinson). For data analysis using FACSDiva software (Becton Dickinson), the mean fluorescence corresponding to CXCR3 cell surface expression was determined on CD3 positive cells. The program GraphPad Prism is used to fit the data to a single site dose response curve and to calculate IC50 values.

Sequence of human CXCR3A (P49682 whole entry): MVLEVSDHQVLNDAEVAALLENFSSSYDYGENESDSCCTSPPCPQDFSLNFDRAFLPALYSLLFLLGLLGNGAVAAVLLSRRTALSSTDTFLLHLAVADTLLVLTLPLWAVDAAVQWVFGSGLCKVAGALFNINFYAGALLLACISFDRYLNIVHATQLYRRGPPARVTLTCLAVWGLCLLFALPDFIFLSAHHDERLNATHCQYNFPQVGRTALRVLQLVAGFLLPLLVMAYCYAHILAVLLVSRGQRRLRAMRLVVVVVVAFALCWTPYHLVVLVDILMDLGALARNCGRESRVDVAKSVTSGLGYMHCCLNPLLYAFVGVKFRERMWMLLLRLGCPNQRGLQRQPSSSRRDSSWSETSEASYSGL
Sequence of CXCR3 (P49682 whole entry): as above

| Structure (SMILES) | IC50 [1] [nM] | IC50 [2] [nM] |
| --- | --- | --- |
| CC[C@@H]1CN(c2scnc2-c2nc3ccccc3[nH]2)CCN1C(=O)Cn1ccc2cccnc21 [Example 18, 1-{(R)-4-[4-(1H-Benzoimidazol-2-yl)-thiazol-5-yl]-2-ethyl-piperazin-1-yl}-2-pyrrolo[2,3-b]pyridin-1-yl-ethanone] | 1 | 2420 |
| COC[C@H]1CN(c2scnc2-c2nc3ccccc3[nH]2)CCN1C(=O)Cn1ccc2cccnc21 [Example 19, 1-{(R)-4-[4-(1H-Benzoimidazol-2-yl)-thiazol-5-yl]-2-methoxymethyl-piperazin-1-yl}-2-pyrrolo[2,3-b]pyridin-1-yl-ethanone] | 25 | 875 |
| Cc1cccc2[nH]c(-c3ncsc3N3CCN(C(=O)Cn4ccc5cccnc54)[C@H](C)C3)nc12 [Example 22, 1-{(R)-2-Methyl-4-[4-(4-methyl-1H-benzoimidazol-2-yl)-thiazol-5-yl]-piperazin-1-yl}-2-pyrrolo[2,3-b]pyridin-1-yl-ethanone] | 1 | 568 |
| C[C@@H]1CN(c2scnc2-c2nc3ccc(Cl)cc3[nH]2)CCN1C(=O)Cn1ccc2cccnc21 [Example 23, 1-{(R)-4-[4-(6-Chloro-1H-benzoimidazol-2-yl)-thiazol-5-yl]-2-methyl-piperazin-1-yl}-2-pyrrolo[2,3-b]pyridin-1-yl-ethanone] | 0.2 | 181 |
| C[C@@H]1CN(c2scnc2-c2nc3ccc(C(C)(C)C)cc3[nH]2)CCN1C(=O)Cn1ccc2cccnc21 [Example 24, 1-{(R)-4-[4-(6-tert-Butyl-1H-benzoimidazol-2-yl)-thiazol-5-yl]-2-methyl-piperazin-1-yl}-2-pyrrolo[2,3-b]pyridin-1-yl-ethanone] | 1 | 215 |
| C[C@@H]1CN(c2scnc2-c2nc3cc(S(C)(=O)=O)ccc3[nH]2)CCN1C(=O)Cn1ccc2cccnc21 [Example 25, 1-{(R)-4-[4-(5-Methanesulfonyl-1H-benzoimidazol-2-yl)-thiazol-5-yl]-2-methyl-piperazin-1-yl}-2-pyrrolo[2,3-b]pyridin-1-yl-ethanone] | 3 | 3140 |
| Cc1cc2[nH]c(-c3ncsc3N3CCN(C(=O)Cn4ccc5cccnc54)[C@H](C)C3)nc2cc1Cl [Example 27, 1-{(R)-4-[4-(5-Chloro-6-methyl-1H-benzoimidazol-2-yl)-thiazol-5-yl]-2-methyl-piperazin-1-yl}-2-pyrrolo[2,3-b]pyridin-1-yl-ethanone] | 3 | 314 |
| COc1cccc2nc(-c3ncsc3N3CCN(C(=O)Cn4c(=O)n(C)c5ccccc54)CC3)[nH]c12 [Example 30, 1-(2-{4-[4-(7-Methoxy-1H-benzoimidazol-2-yl)-thiazol-5-yl]-piperazin-1-yl}-2-oxo-ethyl)-3-methyl-1,3-dihydro-benzoimidazol-2-one] | 2 | 566 |
| Cc1ccc2[nH]c(-c3ncsc3N3CCN(C(=O)Cn4c(=O)n(C)c5ccccc54)CC3)nc2c1 [Example 31, 1-Methyl-3-(2-{4-[4-(5-methyl-1H-benzoimidazol-2-yl)-thiazol-5-yl]-piperazin-1-yl}-2-oxo-ethyl)-1,3-dihydro-benzoimidazol-2-one] | 2 | 540 |
| Cn1c(=O)n(CC(=O)N2CCN(c3scnc3-c3nc4cc(C(F)(F)F)ccc4[nH]3)CC2)c2ccccc21 [Example 32, 1-Methyl-3-(2-oxo-2-{4-[4-(5-trifluoromethyl-1H-benzoimidazol-2-yl)-thiazol-5-yl]-piperazin-1-yl}-ethyl)-1,3-dihydro-benzoimidazol-2-one] | 2 | 633 |
| Cn1c(=O)n(CC(=O)N2CCN(c3scnc3-c3nc4cc(Cl)c(Cl)cc4[nH]3)CC2)c2ccccc21 [Example 35, 1-(2-{4-[4-(5,6-Dichloro-1H-benzoimidazol-2-yl)-thiazol-5-yl]-piperazin-1-yl}-2-oxo-ethyl)-3-methyl-1,3-dihydro-benzoimidazol-2-one] | 3 | 1510 |
| Cc1c(Cl)ccc2nc(-c3ncsc3N3CCN(C(=O)Cn4c(=O)n(C)c5ccccc54)CC3)[nH]c12 [Example 37, 1-(2-{4-[4-(6-Chloro-7-methyl-1H-benzoimidazol-2-yl)-thiazol-5-yl]-piperazin-1-yl}-2-oxo-ethyl)-3-methyl-1,3-dihydro-benzoimidazol-2-one] | 4 | 1490 |
| O=C(Cn1ccc2cccnc21)N1CCN(c2sc(Br)nc2-c2nc3ccccc3[nH]2)CC1 [Example 38, 1-{4-[4-(1H-Benzoimidazol-2-yl)-2-bromo-thiazol-5-yl]-piperazin-1-yl}-2-pyrrolo[2,3-b]pyridin-1-yl-ethanone] | 3 | 1580 |
| CCc1nc(-c2nc3ccccc3[nH]2)c(N2CCN(C(=O)Cn3ccc4cccnc43)CC2)s1 [Example 39, 1-{4-[4-(1H-Benzoimidazol-2-yl)-2-ethyl-thiazol-5-yl]-piperazin-1-yl}-2-pyrrolo[2,3-b]pyridin-1-yl-ethanone] | 15 | 5880 |
| O=C(Cn1ccc2cccnc21)N1CCCN(c2scnc2-c2nc3ccccc3[nH]2)CC1 [Example 44, 1-{4-[4-(1H-Benzoimidazol-2-yl)-thiazol-5-yl]-[1,4]diazepan-1-yl}-2-pyrrolo[2,3-b]pyridin-1-yl-ethanone] | 3 | 3900 |
| CC[C@@H]1CN(c2scnc2-c2nc3ccccc3[nH]2)CCN1C(=O)Cn1cnc2cccnc21 [Example 49, 1-{(R)-4-[4-(1H-Benzoimidazol-2-yl)-thiazol-5-yl]-2-ethyl-piperazin-1-yl}-2-imidazo[4,5-b]pyridin-3-yl-ethanone] | 4 | 851 |
| C[C@@H]1CN(c2sc(C(F)(F)F)nc2-c2nc3ccccc3[nH]2)CCN1C(=O)Cn1cnc2cccnc21 [Example 51, 1-{(R)-4-[4-(1H-Benzoimidazol-2-yl)-2-trifluoromethyl-thiazol-5-yl]-2-methyl-piperazin-1-yl}-2-imidazo[4,5-b]pyridin-3-yl-ethanone] | 1 | 66 |
| O=C(Cn1ccc2cc(F)ccc21)N1CCN(c2scnc2-c2nc3ccccc3[nH]2)CC1 [Example 55, 1-{4-[4-(1 H-Benzoimidazol-2-yl)-thiazol-5-yl]-piperazin-1-yl}-2-(5-fluoro-indol-1-yl)-ethanone] | 4 | 1660 |
| Cc1cccc2ccn(CC(=O)N3CCN(c4scnc4-c4nc5ccccc5[nH]4)CC3)c12 [Example 57, 1-{4-[4-(1H-Benzoimidazol-2-yl)-thiazol-5-yl]-piperazin-1-yl}-2-(7-methyl-indol-1-yl)-ethanone] | 2 | 4130 |
| O=C(Cn1ccc2c(Cl)cccc21)N1CCN(c2scnc2-c2nc3ccccc3[nH]2)CC1 [Example 60, 1-{4-[4-(1H-Benzoimidazol-2-yl)-thiazol-5-yl]-piperazin-1-yl}-2-(4-chloro-indol-1-yl)-ethanone] | 8 | 1400 |
| N#Cc1cccc2ccn(CC(=O)N3CCN(c4scnc4-c4nc5ccccc5[nH]4)CC3)c12 [Example 61, 1-(2-{4-[4-(1H-Benzoimidazol-2-yl)-thiazol-5-yl]-piperazin-1-yl}-2-oxo-ethyl)-1H-indole-7-carbonitrile] | 2 | 458 |
| O=C(Cn1ccc2ccc(Cl)nc21)N1CCN(c2scnc2-c2nc3ccccc3[nH]2)CC1 [Example 65, 1-{4-[4-(1H-Benzoimidazol-2-yl)-thiazol-5-yl]-piperazin-1-yl}-2-(6-chloro-pyrrolo[2,3-b]pyridin-1-yl)-ethanone] | 3 | 816 |
| O=C(CN1C(=O)Cc2ccccc21)N1CCN(c2scnc2-c2nc3ccccc3[nH]2)CC1 [Example 68, 1-(2-{4-[4-(1H-Benzoimidazol-2-yl)-thiazol-5-yl]-piperazin-1-yl}-2-oxo-ethyl)-1,3-dihydro-indol-2-one] | 8 | 749 |
| O=C(Cn1c(=O)[nH]c2cccnc21)N1CCN(c2scnc2-c2nc3ccccc3[nH]2)CC1 [Example 71, 3-(2-{4-[4-(1H-Benzoimidazol-2-yl)-thiazol-5-yl]-piperazin-1-yl}-2-oxo-ethyl)-1,3-dihydro-imidazo[4,5-b]pyridin-2-one] | 6 | 639 |
| C[C@@H]1CN(c2scnc2-c2nc3cc(Cl)ccc3[nH]2)C[C@H](C)N1C(=O)Cn1cnc2cccnc21 [Example 72, 1-{(2S,6R)-4-[4-(5-Chloro-1H-benzoimidazol-2-yl)-thiazol-5-yl]-2,6-dimethyl-piperazin-1-yl}-2-imidazo[4,5-b]pyridin-3-yl-ethanone] | 1 | 231 |
| C[C@@H]1CN(c2sc(C3CC3)nc2-c2nc3ccccc3[nH]2)CCN1C(=O)Cn1cnc2cccnc21 [Example 73, 1-{(R)-4-[4-(1H-Benzoimidazol-2-yl)-2-cyclopropyl-thiazol-5-yl]-2-methyl-piperazin-1-yl}-2-imidazo[4,5-b]pyridin-3-yl-ethanone] | 6 | 800 |
